# Assay results taken from the METLIN SMRT retention time set (Domingo-Almenara et al. 2019).
# Assay: gradient 5% acetonitrile 3 min, to 50% in 2 min, to 85% in 15 min, held 3 min, 100 µL/min
# Details: column: Zorbax Extend-C18 2.1 x 50 mm; eluents: water / acetonitrile, 0.1% formic acid
# Method in brief: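 Each retention time is based on an adduct peak selected computationally and verified by manual inspection. Measurements used HPLC–quadrupole time-of-flight mass spectrometry in positive and negative ionization mode on mixtures of ~100 pure standards. Chromatography ran on a Zorbax Extend-C18 column (2.1 × 50 mm, 1.8 μm) at 100 μL/min with water and acetonitrile, each containing 0.1% formic acid, and dead and dwell volumes of 40 μL and 900 μL.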
row,SMILES,RP-LC retention time
1,COC(=O)c1ccc(NC(=O)N2CCCC2c2cc(C(C)C)on2)cc1 (configuration not stated),890 s
2,CCOc1ccccc1N1CC(c2nc3ccccc3n2CCN2CCOCC2)CC1=O (configuration not stated),610 s
3,CN1CCC(N2CCN(S(=O)(=O)c3ccccc3Cl)CC2)C1=O (configuration not stated),570 s
4,CCOC(=O)N1CCN(C(=O)CSc2ncnc3c2oc2ccccc23)CC1,742 s
5,O=C(NCCc1csc(-c2cccs2)n1)C1CCN(C(=O)Cc2cccc(F)c2)CC1,797 s
6,O=C(CCc1nnc2ccc(NCc3ccccc3Cl)nn12)N1CCN(c2ccccn2)CC1,613 s
7,CC1CCc2nn(CC(=O)Nc3c(F)c(F)c(F)c(F)c3F)cc2C1 (configuration not stated),934 s
8,O=c1ccn(-c2ccc(Cl)cc2)nc1-c1nc(-c2cccc(Br)c2)no1,1080 s
9,CCCN1C(=O)COc2ccc(-c3csc(NC(=O)CC(C)C)n3)cc21,1000 s
10,CC(C)Sc1ccc(CC(=O)NCC2(O)CCCC2)cc1,752 s
11,O=C(N[C@H]1C[C@@H]2C[C@H]1N(C(=O)c1ccco1)C2)c1ccccc1,671 s
12,COc1ccc(C(=O)N2C[C@@H]3C[C@H](NS(=O)(=O)c4ccccc4)[C@H]2C3)cn1,695 s
13,COc1cccc(Nc2nc(C)c(C(=O)Nc3ccc(F)c(Cl)c3)s2)c1,1060 s
14,O=C(COc1ccc(F)cc1)Nc1ccccc1NC(=O)c1ccccc1Cl,853 s
15,Cc1cc(C)c(NC(=O)Cn2nc3n(c2=O)CCCC3)c(C)c1,684 s
16,O=C(Cn1nc2c(cc1=O)CCCCC2)Nc1nc(-c2ccccn2)cs1,655 s
17,Cc1nc(C)c(C(=O)N2CCC(Oc3ccc(-c4noc(C5CC5)n4)cc3)C2)s1 (configuration not stated),860 s
18,Cc1ccc2c(n1)nn1c(C)cc(C)nc21,557 s
19,CCn1c(=O)c(C(=O)NCc2ccc(C)cc2)nc2cccnc21,781 s
20,Cc1nc(-c2cnccn2)n(CC(=O)Nc2ccccc2)c(=O)c1C,704 s
21,Nc1cc(C2CCN(C(=O)Nc3ccccc3Br)CC2)no1,706 s
22,Cc1sc(NC(=O)c2ccccc2)nc1-c1ccc2c(c1)N(C)C(=O)CO2,952 s
23,COC(=O)C(C)NC(=O)NCc1cccn1Cc1ccc(Cl)cc1 (configuration not stated),832 s

row,SMILES,RP-LC retention time
1,CCCCOc1ccc(C(=O)N2CCNC(=O)C2CC(=O)OC2CCCCC2)cc1 (configuration not stated),1000 s
2,Cc1cccc(OCc2nc(-c3cccc(-c4ccn[nH]4)c3)no2)c1,999 s
3,Cc1noc(-c2ccnc(-n3cnc(C(=O)NCCC(C)C)c3)c2)n1,849 s
4,CC(C)c1ccc(-n2c3c(cc(C(=O)N4CCOCC4)c2=O)C(=O)CCC3)cc1,722 s
5,COc1ccc2[nH]cc(CCNC(=O)c3ccccc3F)c2c1,789 s
6,COc1cc(C(=O)Nc2nc(-c3ccc4c(c3)NC(=O)CO4)cs2)cc(OC)c1OC,824 s
7,CCN1CCN(Cc2ccc(C(=O)NCc3ccc(C(F)(F)F)cc3)cc2)C(=O)C1=O,744 s
8,CCN(CC)S(=O)(=O)c1ccc2c(c1)CC(C(=O)NCc1ccc(N(C)C)cc1)N2C(C)=O (configuration not stated),669 s
9,O=C(Cn1c(C(F)(F)F)nc2cc3c(cc21)OCCO3)NCc1ccc2c(c1)OCCCO2,818 s
10,COCCN1CCn2cc(S(=O)(=O)Nc3ccc(F)c(F)c3)cc2C1=O,733 s
11,CCC(=O)NCCc1csc(C2CCN(C(=O)C3CCC3)CC2)n1,679 s
12,CCC1Oc2ccc(S(=O)(=O)N3CCC(C(=O)NCc4ccccc4OC)CC3)cc2NC1=O (configuration not stated),839 s
13,O=C(c1cccs1)N1CCC2(CC1)NC(=O)N(Cc1ccc(Cl)cc1)C2=O,816 s
14,COc1ccc2nc3cc(Cl)ccc3c(C#N)c2c1,1260 s
15,Cc1nnc2c(=O)n(CC(=O)N3CCN(c4ccccn4)CC3)c3cccnc3n12,548 s
16,COCCCNS(=O)(=O)c1ccccc1-c1nc(-c2ccc(F)cc2)no1,905 s
17,CCc1noc(NC(C)=O)c1-c1ccc(C)c(S(=O)(=O)Nc2cccc(C(F)(F)F)c2)c1,889 s
18,Cc1cc(C(=O)Nc2ccc(Cl)cc2)n(CC(=O)Nc2ccc(F)cc2)n1,946 s
19,CC(C)n1c(CN2CCOCC2)nc2cc(NC(=O)c3ccco3)ccc21,619 s
20,CCC(C)N(CC(=O)N(Cc1ccco1)CC1CCCO1)C(=O)c1ccc(F)cc1 (configuration not stated),864 s
21,O=C(Cc1ccsc1)N1CCC(c2nc(-c3ccccc3)no2)C1 (configuration not stated),864 s
22,COc1cc(-c2nc3ncccn3c2Nc2ccc(C(C)C)cc2)ccc1O,711 s
23,O=C1CCc2cc(S(=O)(=O)NCc3ccco3)cc3c2N1CCC3,677 s

row,SMILES,RP-LC retention time
1,Cc1oc(C2CCN(C(=O)Nc3ccc(F)cc3)CC2)nc1C(=O)N1CCOCC1,686 s
2,O=S(=O)(c1ccccc1)N1CC2CN(S(=O)(=O)c3cccc(F)c3)CC(C1)O2,905 s
3,c1ccc(-c2n[nH]c(C3CCCN3)n2)cc1 (configuration not stated),546 s
4,O=C(NCc1ccc(F)cc1Cl)c1cn(-c2ccc(NC(=O)C3CC3)cn2)cn1,814 s
5,O=C(Nc1ccc(F)cc1)N1CCC(N2CCN(Cc3cccc(F)c3)C(=O)C2=O)CC1,722 s
6,CC(C)Cn1c(=O)c(N2CCN(C(=O)Cc3cccs3)CC2)nc2ccncc21,592 s
7,O=C(CSc1nnc2c3cc(-c4ccccc4)nn3ccn12)Nc1ccccc1Br,908 s
8,CCc1cccc(NC(=O)CN2C(=O)CCCc3cc(S(=O)(=O)N4CCCC4)ccc32)c1,916 s
9,CCn1cc(CCNC(=O)NC)c2cccnc21,561 s
10,CCN1C(=O)c2cccnc2Sc2cc(CNC(=O)c3cccc4[nH]ccc34)ccc21,721 s
11,COC(=O)[C@H](Cc1cccc(C(=N)N)c1)[C@@H](C)NC(=O)c1ccc(-c2cc[n+]([O-])cc2)cc1,610 s
12,O=C(Nc1cccc(Cl)c1)Nn1cnnc1,691 s
13,Cc1ccccc1-n1c(Cn2cnc3c(N)ncnc32)nc2cccc(C)c2c1=O,719 s
14,O=C(Cn1ccc2ccccc21)Nc1ccc2cn[nH]c2c1,726 s
15,O=C(c1cc2c(=O)n(Cc3ccccc3)ccc2s1)N1CCCCCC1,876 s
16,CCN1C(=O)c2cccnc2Sc2cc(C(=O)NCc3ccccc3F)ccc21,803 s
17,Cc1ccn2cc(C(=O)N3CCN(c4cccc(Cl)c4)CC3)nc2c1,692 s
18,O=C(CCc1c(-c2ccc(F)cc2)nc2ccccn12)N1CCN(c2ccccc2)CC1,693 s
19,CS(=O)(=O)N1CCCC1C(=O)Nc1ccccc1 (configuration not stated),690 s
20,CCn1c(=O)sc2cc(S(=O)(=O)N3CCC(C(=O)Nc4cc(C)ccn4)CC3)ccc21,702 s
21,CS(=O)(=O)N1CCOc2ccc(CCC(N)=O)cc2C1,628 s
